# “Also recorded” adds a separate entry of the source.
# Columns and labels:
# SMAC cells [1] = test: Survival of SMAC cells after hypothermia (MTS assay / cell counting); format: cell-based, rat; settings: SMAC cells, 24 h at 3° C., substance added 15 min before hypothermia
# Protocol: Cell lines used included NRK (normal rat kidney cells), DDT-1 (hamster ductus deferens muscle cells) and A7R5 (rat vascular smooth muscle cells) cultured in DMEM (Gibco, 41966, UK) and SMAC (rat smooth muscle aortic cells) and THMC (transformed human mesangial cell) cultured in DMEM/F12 (Gibco, E12-719F). All media were supplied with 10% (vol/vol) fetal calf serum and 1% penicillin-streptomycin and cultured at 37° C. in 5% CO2 in 25 cm^2 or 75 cm^2 flasks. For hypothermia experiments, cells were plated in 6 or 96 wells plates and grown to confluence. Thereupon, cells were placed at 3° C. for up to 24 hours. Cell survival was measured by counting of trypan blue stained cells or MTS assay, which measures the number of viable cells. For the latter, 20 μl of MTS solution was added to each well and cells were subsequently placed in the incubator at 37° C. in 5% CO2 for 3 hr before assessing the cell survival by measuring absorption using a microplate reader at 490 nm.
# MTS assay was performed to investigate cell survival after blocking serotonin transporter and hypothermic treatment.
# SMAC cells [2] = test: Caspase 3/7 assay in hypothermic SMAC cells; format: cell-based, rat; settings: serotonin 5 nmol/L
# [3] = tested on: CBS enzyme isolated from DDT-1 cells; test: Activity of isolated CBS enzyme (H2S production); format: biochemical, hamster; settings: both at 37° C. and 3° C.
# Protocol: To examine the potential of serotonin to act as a cofactor or allosteric activator of CBS, the enzyme was isolated from DDT-1 cells. In brief, DDT-1 cells were lyzed by a non-denaturing buffer. CBS antibody (1 μg/ml) was diluted in coating solution and 100 μl of it was added to each well of a microplate. The plates were left at 4° C. over night. The wells were washed with PBS three times for 2 min and 10 μg/ml of the protein was added to each well and the microplate was left at 4° C. for another 24 hr and later washed three times with PBS. The substrates cysteine and homocysteine at the concentration of 10 μmol each were mixed and 100 μl was added to each well in the absence or presence of PLP (pyridoxal-5-phosphate) or serotonin (30 nmol) in PBS.
# SMAC cells [4] = test: H2S content of SMAC cell homogenates (methylene blue method); format: cell-based, rat; settings: hypothermic SMAC cells 24 h, 3° C., pretreatment 15 min, 1.3 μM
# Protocol: Methylene blue method for H2S detection was applied to quantitatively measure the H2S production. Cells were washed with PBS, scraped and centrifuged for 60 sec at 1000 rpm. After removal of the supernatant, zinc acetate 1% in water (200 μl) was added to the cell sediments and the cells were disrupted by small glass beads and vortexed for 20 seconds. Diamine-ferric solution was prepared by mixing 100 μl of a 400 mg N,N-dimethyl-p-phenylenediamine dihydrochloride dissolved in 10 ml 6M HCl and 100 μl of 600 mg ferric chloride in 10 ml 6M HCl. Two hundred μl of this mixture was added to the cell suspension and after an incubation time of 30 min at 37° C. and centrifugation, the amount of methylene blue formed in the supernatant was measured at a wavelength of 670 nm. To measure H2S content of supernatant, the same procedure was repeated for the cell free medium of cells incubated at both 37° C. and 3° C. Blanks were made following the same procedure without cells or using fresh medium. The concentration of H2S was calculated by extrapolation using a standard curve obtained from different concentrations of Methylene blue and spectrophotometric measurement at a wavelength of 670 nm. The amount of H2S present was calculated on the basis that every mole of methylene blue formed in this reaction contains 32 g (1 mole) of captured sulfur.
# [5] = tested on: Cystathionine-β-synthase (CBS); test: CBS expression in SMAC cells (western blot); format: cell-based, rat; settings: serotonin 1.3 μM
# Protocol: To investigate the potential of serotonin in upregulating CBS expression in cells, SMAC cells were cultured in a 6 well plate one day before serotonin treatment. After reaching confluence, cells were incubated with 1.3 μM serotonin in SMAC cell complete medium. Control wells only contained the medium. At every time point (5, 10, min), cells were washed with PBS, lysed using RIPA buffer and western blotted to study the change in CBS expression level.
# To investigate the role of Cystathione beta-synthase activity in the protective effect of serotonin the expression of CBS was reduced by applying a predesigned siRNA (sc-60336, Santa Cruz, USA) and compared to a silencer negative control (Ambion, AM4644, Huntingdon, UK). DDT-1 and SMAC cells at 60-80% confluence were seeded in 96 or 6 well plates in antibiotic-free normal growth medium supplemented with FCS. […] The protein concentration was measured by Bradford assay in all the samples. […] Proteins were transferred to a nitrocellulose membrane and detected by West Pico Chemiluminescent Substrate (supersignal), photographed and analyzed with genetool software (version 3.08, SynGene, England). […]
structure (smiles),measurement,setting,value
"NCCc1c[nH]c2ccc(O)cc12 [serotonin, Serotonin]",protection against hypothermic cell death / reduction in number of cells,SMAC cells [1],concentration-dependently prevented; also recorded: Protection of hypothermic cell death
same,apoptosis (caspase 3/7) in hypothermic SMAC cells,SMAC cells [2],completely and dose dependently attenuated
same,activity of isolated CBS,[3],increase the activity
same,H2S content,SMAC cells [4],1.4±0.2 μmoles per 10̂6 cells
same,increase of H2S content,SMAC cells [4]; vs untreated,8 fold
same,induction of CBS expression,"[5]; SMAC cells, 37° C., 15 min",4 fold
same,CBS expression in 37° C. SMAC cells,[5],upregulates CBS expression
